# Experiment: Human HepG2 cell viability assay in 384 well format
# Assay type: toxicity, cell-based
# Set-up: dose 125 nL, time 70.5 hour; cytotoxicity at 70.5 h: concentration not given beside the values
# Settings: HepG2 cells, read-out: Inhibition
row,SMILES,cytotoxicity at 70.5 h
1,Cc1ccc(-c2cn3c(n2)CO[C@@H](CNCc2cccnc2)C3)cc1,11%
2,C[C@@H](NC(=O)c1cccnc1)c1onc(-c2ccccc2)c1C(=O)O,-4.96%
3,CNC(=O)C(C)(C)N1CCC[C@H]1C(=O)NCC1CC1,9.57%
4,c1ccc2c(Cc3nnc([C@H]4CCN(C5CCOCC5)C4)o3)c[nH]c2c1,-0.535%
5,CC(=O)N1CCOC[C@H](OCC(=O)N(C)C)C1,0.496%
6,CN1CCN2C(=O)N(C3CCCCC3)C[C@H]2C1,-5.56%
7,CC(C)(O)c1cc(CC2(NCc3ccco3)COC2)no1,-7.88%
8,Cc1cccc2c1nc1n2[C@@H](CNC(=O)c2cnccn2)COC1,12.8%
9,Cc1cccc2c1nc1n2[C@@H](CNC(=O)CCC(=O)O)COC1,-4.85%
10,COc1ccccc1C(=O)NC[C@H]1COCc2nc3c(C)cccc3n21,-1.28%
11,O[C@@H]1C[C@@H](c2nc(Cc3ccccc3)no2)N(Cc2ncc[nH]2)C1,9.72%
12,Cc1ccc(CN2C[C@H]3CN(C(=O)c4ccno4)CCN3C2=O)cc1,6.23%
13,O=C1NC[C@H]2CN(Cc3ccnc4ccccc34)CCN12,-6.05%
14,CN(C)C(=O)CO[C@H]1COCCN(C2CCOCC2)C1,-4.86%
15,CC(C)(C)c1coc([C@@H]2COCCN2CC2CC2)n1,-0.839%
16,CCCOc1cc(C)c2c(c1C)C[C@H]([C@H](C)C(=O)O)CC2,-3.42%
17,COc1ccc2c(c1)nc1n2[C@@H](CNC(=O)c2ccccn2)COC1,-7.73%
18,Cn1c(CO[C@H]2CN(S(C)(=O)=O)C[C@H]2F)nc2ccccc21,-1.31%
19,FC(F)(F)c1ccc(CNC[C@H]2COCc3nc4cccnc4n32)cc1,-3.68%
20,Cc1noc([C@@H]2C[C@H](NS(=O)(=O)Cc3ccccc3)CN2C)n1,-3.9%
21,O=C1CO[C@H]2CN(Cc3c[nH]c4ccccc34)C[C@H]2N1,7.73%
22,COc1ccc2c(c1)nc1n2[C@@H](CNCc2ncccc2C)COC1,-5.69%

row,SMILES,cytotoxicity at 70.5 h
1,c1ccc2c(c1)nc1n2[C@@H](CNCc2nccs2)COC1,-19.6%
2,O=C(C1CC1)N1C[C@@H](F)[C@@H](OCc2nc3ccccc3o2)C1,0.185%
3,COCCOc1ccnc(-c2noc([C@@H]3CCCN3C(C)C)n2)c1,-5.66%
4,NC(=O)c1cccc2nc([C@H]3CCN(Cc4ccccc4F)C3)[nH]c12,-3.45%
5,CC(C)NC(=O)N[C@H]1C[C@@H](Cc2cc(CN3CCOCC3)on2)C1(C)C,-8.22%
6,COCCN1C(=O)CO[C@H]2CN(Cc3ccccc3OC)C[C@H]21,-13.3%
7,COC(=O)c1ccc2nc(CO[C@H]3CN(CC4CC4)C[C@H]3F)[nH]c2c1,1.07%
8,CC(=O)NC[C@H]1COCc2nc3c(C)cccc3n21,10.8%
9,Cc1ccc2[nH]c(CO[C@H]3CN(C(=O)C4CC4)C[C@H]3F)nc2c1,3.41%
10,CS(=O)(=O)c1ccc(CNC[C@H]2COCc3nc4cccnc4n32)cc1,-1.94%
11,c1cnc2c(c1)nc1n2[C@@H](CNCc2nccs2)COC1,-8.24%
12,Cc1cc2nc(CO[C@H]3CN(C)C[C@H]3F)[nH]c2cc1C,-0.513%
13,CC(=O)N1CCC(N[C@@H]2CO[C@H](CNC(=O)C3CCCC3)[C@H]2O)CC1,-5.38%
14,O=C1N(c2ccccc2)C[C@H]2CN(C3CCC3)CCN12,-3.05%
15,COCCN1C[C@H]2CN(Cc3cccc(OC(F)(F)F)c3)CCN2C1=O,-7.08%
16,COCCN1C[C@H]2CN(Cc3cccc(OC)c3)CCN2C1=O,-7.25%
17,O=C1N(Cc2cccnc2)C[C@H]2CN(S(=O)(=O)c3ccccc3)CCN12,1.73%
18,O[C@H]1COCCN(Cc2cccc3c2OCO3)C1,-4.2%
19,COc1ccc(O[C@H]2COCCN(Cc3c[nH]c4ccccc34)C2)cc1,1.44%
20,CO[C@H]1COCCN(C(=O)c2ccc(F)cc2)C1,-3.92%
21,Cc1ccc(S(=O)(=O)NC[C@H]2OC[C@@H](NCc3ccccc3)[C@@H]2O)cc1,-10%
22,O=C1N(Cc2ccccc2)C[C@H]2CN(Cc3ccccc3Cl)CCN12,-1.14%

row,SMILES,cytotoxicity at 70.5 h
1,CS(=O)(=O)N1CCN2C(=O)N(C3CCCCC3)C[C@H]2C1,7.82%
2,O=C(O)C(c1ccc2c(c1)OCO2)N1CCC(C(=O)N2CCCC2)CC1 (stereo unspecified),-2.61%
3,CC(C)CN1CCCn2nc(CNC(=O)CCN)cc2C1,-6.27%
4,Cc1cc(N(C)Cc2noc(C)n2)n2nc(C)c(C)c2n1,-8.45%
5,CCc1ccccc1CN1CC[C@@H](NC(=O)c2cccnc2)[C@H](O)C1,1.15%
6,O=C(CCc1cc2n(n1)CCN(Cc1ncc[nH]1)C2)N1CCCC1,2.55%
7,Cc1[nH]nc(CCC(=O)N2CCCC(OCc3cccnc3)C2)c1C (stereo unspecified),1.55%
8,CCCn1cc(C(=O)N(C)Cc2nc(-c3ccccn3)no2)c(C)n1,-8.48%
9,CCn1c(C2CCCN(Cc3nccn3CCOC)C2)nn(C)c1=O (stereo unspecified),-11.9%
10,CC1CCN(Cc2cnc(S(=O)(=O)CC3CC3)n2CC2CCCO2)CC1 (stereo unspecified),11.8%
11,COCc1ncc(CN2CCC(Oc3ccccc3OC)CC2)cn1,-10.9%
12,CC(C)c1cc(N2CCC(CCC(=O)NC3CC3)CC2)n2nccc2n1,-10.7%
13,N#Cc1ccccc1C(=O)N1CCC2(CC(=O)NC2=O)C1 (stereo unspecified),15.7%
14,Cc1cc(F)ccc1OC1(C(=O)O)CCN(Cc2cccnc2N)CC1,0.105%
15,C[C@@H]1CN(C(=O)c2ccc(C#N)nc2)CC[C@@]1(O)C1CCOCC1,-9.58%
16,CN1N=C(C(=O)N2CCCC(CCc3c(F)cccc3F)C2)CCC1=O (stereo unspecified),-8.44%
17,CN(C)C(=O)CCC(=O)NCc1cccnc1-n1cnc2ccccc21,-8.79%
18,CN(C)C(C(=O)N1CCC(N2CCSCC2)CC1)c1ccccc1F (stereo unspecified),-3.23%
19,CCc1cnc(N2CCC(=O)N(CC3CC3)C(C(C)C)C2)nc1 (stereo unspecified),8.36%
20,Cn1cccc1CCC(=O)N1CCC2(CC1)c1ccccc1CC2O (stereo unspecified),-12.2%
21,Cc1cc(C(=O)N2CCC(c3nccn3CCCN(C)C)CC2)no1,0.885%
22,COc1ccccc1Oc1ncccc1CNC(=O)[C@@H](C)NC(C)=O,-0.828%

row,SMILES,cytotoxicity at 70.5 h
1,Cc1occc1C(=O)N1CCC2(CCCN(CC3CCC3)C2=O)C1 (stereo unspecified),-4.3%
2,CSc1cccc(CNC(=O)C2CC(=O)N(CCN(C)C)C2)c1 (stereo unspecified),4.55%
3,COc1cc(C)c(CN2CCC3(CC2)C(C(=O)O)CC(=O)N3C)cc1C (stereo unspecified),3.6%
4,O=C(c1ccc(C2CCCO2)s1)N1Cc2ccccc2C1 (stereo unspecified),0.527%
5,COc1ccc(NC(=O)CCC2CCCN(Cc3ncon3)C2)c(C)c1 (stereo unspecified),-4.69%
6,COc1ccc(OC)c(C2CCN(Cc3nc(C)n4ccccc34)C2)c1 (stereo unspecified),-12.6%
7,O=C(c1cncc(N2CCC3(CCNCC3)CC2)n1)N1CCCC1,12.4%
8,COc1ccccc1C1CNC(=O)c2nc(-c3cnn(C)c3)[nH]c2C1 (stereo unspecified),-7.47%
9,O=C1OC2(CCNCC2)CN1CC(=O)N1CCCC1c1ccco1 (stereo unspecified),-9.95%
10,Cc1nc[nH]c1CN1CCN(C(=O)c2cccs2)[C@H]2CS(=O)(=O)C[C@H]21,-8.73%
11,Cc1ccsc1[C@@H]1CCN(C(=O)c2cc3ccccc3[nH]2)C[C@H]1O,0.623%
12,O=C(O)C1(Cc2ccccc2Cl)CCN(c2ncccc2F)CC1,-6.72%
13,Cc1cnn(C(C)C2CC2)c1NC(=O)c1ccncc1 (stereo unspecified),-8.36%
14,CN(C)C(=O)CN1C[C@@H]2CC[C@H](C1)N(C(=O)Cc1ccccc1Cl)C2,8.11%
15,CCCNC(=O)c1ccc2c(c1)C(=O)N(CC(C)C)C2=O,-1.77%
16,CSCCCN1CC[C@@H](NC(=O)c2cnccn2)[C@H](O)C1,-10.8%
17,CC(C)(C)N1CC(C(=O)N2CCN(CCn3cccc3)CC2)CC1=O (stereo unspecified),-2.66%
18,CSCC(=O)N1CCC2(CC1)c1ccccc1CC2O (stereo unspecified),16.5%
19,COC(=O)C1CCN(C(=O)c2ccc(NS(C)(=O)=O)c(C)c2)CC1,-9.09%
20,CCCN1CC(C(=O)Nc2ccccn2)CC1=O (stereo unspecified),-5.78%
21,COC(=O)C1CCN(C(=O)c2ccc(N(C)S(C)(=O)=O)c(C)c2)CC1,-10.1%
22,Cc1cnc(C)c(N2CCN(Cc3ccc(-c4cc[nH]n4)o3)CC2)n1,-12.4%

row,SMILES,cytotoxicity at 70.5 h
1,CCN(c1ccc(C(=O)N2CCCC2)cc1)S(=O)(=O)CC,-10.8%
2,CCC(NC(=O)C1CCN(S(=O)(=O)N(C)C)CC1)c1ccc(C)c(C)c1 (stereo unspecified),-5.81%
3,CCC(C(=O)NCc1ccncc1)N(c1ccc(OC)cc1)S(C)(=O)=O (stereo unspecified),-4.69%
4,CN1CCC(Oc2ccc(NC(=O)c3cccc(Cl)c3)cc2)CC1,-3.56%
5,CCC(C(=O)NC)N(c1cccc(C)c1)S(C)(=O)=O (stereo unspecified),11.9%
6,CC(C)(N)CN1CCC(c2nnc(CN3CCCC3)n2C2CC2)CC1,-0.439%
7,CCC(=O)N1CCC(c2nnc(Cn3cncn3)n2C2CC2)CC1,6.31%
8,CCCS(=O)(=O)N1CCN(c2ccnc(N3CCCC3)n2)CC1,-7.03%
9,COc1ccc(NC(=O)Cn2nc(C)c(C)cc2=O)cc1OC,12.7%
10,COc1ccc(CNC[C@@]2(COc3cccnc3)C[C@@H](O)[C@@H](O)C2)cc1,10.2%
11,COCCOC[C@]1(CNCc2cccc(OC)c2)C[C@@H](O)[C@@H](O)C1,0.877%
12,O=C(NC[C@@]1(COc2cnccn2)C[C@@H](O)[C@@H](O)C1)C1CCCC1,10.3%
13,C[C@@H](NC(=O)c1ccc(Cl)cc1)c1onc(-c2cccnc2)c1C(=O)O,-6%
14,O=C(NC[C@@]1(COc2cnccn2)C[C@@H](O)[C@@H](O)C1)C1CCOCC1,-1.95%
15,O[C@@H]1C[C@@](CNCc2cccc(Cl)c2)(COc2cnccn2)C[C@@H]1O,-12%
16,O[C@@H]1C[C@@](CNCC2CC2)(COc2cccnc2)C[C@@H]1O,-7.73%
17,O[C@@H]1C[C@@](CNCc2ccc(F)cc2)(COc2cccnc2)C[C@@H]1O,0.0431%
18,O[C@@H]1C[C@@](CNCc2ccccn2)(COc2cccnc2)C[C@@H]1O,-8.64%

# Source: ChEMBL document CHEMBL3507680, “University of Dundee, Gates Library screen for HepG2 cell viability”
